The nature of data set [1]: xn = mol fraction of the nth substance listed. The note with it: 100 kPa, Liquid, x2 = 0; for speed of sound: Frequency=3 MHz, Sing-around technique in a fixed-path interferometer; for mass density: Vibrating tube method.
Data set [2] in a line: refractive index (Na D-line) (dimensionless); xn = mol fraction of the nth substance listed. To be noted: 100 kPa, Liquid, Standard Abbe refractometry, x2 = 0.
Data set [3] is described as follows: refractive index (Na D-line) (dimensionless). To be noted: 100 kPa, Liquid, Standard Abbe refractometry.
For data set [4] the following is noted: 100 kPa, Liquid; for speed of sound: Frequency=3 MHz, Sing-around technique in a fixed-path interferometer; for mass density: Vibrating tube method.

Each structure is given as a SMILES string. ± gives the expanded uncertainty stated by the source.

As usually defined, the speed of sound is how fast a sound wave travels through the sample. The term mass density denotes the mass of a sample divided by its volume. One may read the refractive index as a measure of how strongly the sample bends light. As to `CC(C)CO` [2-methyl-1-propanol] + CCCCCCCC[n+]1ccn(C)c1.F[B-](F)(F)F, the speed of sound in data set [1] (298.15 K) was found to be 1189 ± 1.4 m/s; in data set [1] (308.15 K), 1155.9 ± 1.3 m/s; in data set [1] (318.15 K) it was 1118.6 ± 1.3 m/s. The mass density came out at 797.82 ± 0.22 kg/m3 in data set [1] (298.15 K), 790.63 ± 0.23 kg/m3 in data set [1] (308.15 K) and 781.98 ± 0.23 kg/m3 in data set [1] (318.15 K). For the same compound, the results for the refractive index in data set [2] (298.15 K), in data set [2] (308.15 K) and in data set [2] (318.15 K) were 1.39408 ± 0.0016, 1.38925 ± 0.0016 and 1.38444 ± 0.0016, respectively.

On to `CC(C)(C)O` [2-methylpropan-2-ol], for which the refractive index worked out at 1.38488 ± 0.0016 in data set [3] (298.15 K), 1.37985 ± 0.0016 in data set [3] (308.15 K) and 1.37402 ± 0.0016 in data set [3] (318.15 K). Further, the speed of sound in data set [4] (298.15 K) came out at 1121.4 ± 1.3 m/s; in data set [4] (308.15 K) it was 1082 ± 1.3 m/s; in data set [4] (318.15 K), 1038.2 ± 1.3 m/s. Further, the mass density in data set [4] (298.15 K) is given as 780.72 ± 0.23 kg/m3; in data set [4] (308.15 K) it was 770.21 ± 0.23 kg/m3; in data set [4] (318.15 K), 759.5 ± 0.23 kg/m3.

As to `CC(C)(C)O` [2-methylpropan-2-ol] + CCCCCCCC[n+]1ccn(C)c1.F[B-](F)(F)F, the speed of sound is 1121.4 ± 1.3 m/s in data set [1] (298.15 K), 1082 ± 1.3 m/s in data set [1] (308.15 K) and 1038.2 ± 1.3 m/s in data set [1] (318.15 K). In addition, the mass density in data set [1] (298.15 K) came to 780.72 ± 0.23 kg/m3; in data set [1] (308.15 K), 770.21 ± 0.23 kg/m3; in data set [1] (318.15 K), 759.5 ± 0.23 kg/m3. Also, the refractive index in data set [2] (298.15 K) amounted to 1.38488 ± 0.0016; in data set [2] (308.15 K), 1.37985 ± 0.0016; in data set [2] (318.15 K) it was 1.37402 ± 0.0016.

Regarding `CC(C)CO` [2-methyl-1-propanol], the refractive index in data set [3] (298.15 K) amounted to 1.39408 ± 0.0016; in data set [3] (308.15 K), 1.38925 ± 0.0016; in data set [3] (318.15 K), 1.38444 ± 0.0016. The speed of sound in data set [4] (298.15 K) is recorded as 1189 ± 1.4 m/s; in data set [4] (308.15 K) it was 1155.9 ± 1.3 m/s; in data set [4] (318.15 K), 1118.6 ± 1.3 m/s. The mass density is given as 797.82 ± 0.22 kg/m3 in data set [4] (298.15 K), 790.63 ± 0.23 kg/m3 in data set [4] (308.15 K) and 781.98 ± 0.23 kg/m3 in data set [4] (318.15 K).

Take `CCCCO` [butan-1-ol] + CCCCCCCC[n+]1ccn(C)c1.F[B-](F)(F)F: the speed of sound is recorded as 1242.4 ± 1.2 m/s in data set [1] (298.15 K), 1207.5 ± 1.2 m/s in data set [1] (308.15 K) and 1171.5 ± 1.2 m/s in data set [1] (318.15 K). Further, the figures for the mass density in data set [1] (298.15 K), in data set [1] (308.15 K) and in data set [1] (318.15 K) were 805.76 ± 0.2 kg/m3, 798.05 ± 0.2 kg/m3 and 790.21 ± 0.2 kg/m3, respectively. In addition, the refractive index in data set [2] (298.15 K) amounted to 1.39728 ± 0.0016; in data set [2] (308.15 K) it was 1.39324 ± 0.0016; in data set [2] (318.15 K) it was 1.38911 ± 0.0016.

For `CCCCO` [butan-1-ol], the refractive index was determined as 1.39728 ± 0.0016 in data set [3] (298.15 K), 1.39324 ± 0.0016 in data set [3] (308.15 K) and 1.38911 ± 0.0016 in data set [3] (318.15 K). The speed of sound was determined as 1242.4 ± 1.2 m/s in data set [4] (298.15 K), 1207.5 ± 1.2 m/s in data set [4] (308.15 K) and 1171.5 ± 1.2 m/s in data set [4] (318.15 K). Moreover, the mass density worked out at 805.76 ± 0.2 kg/m3 in data set [4] (298.15 K), 798.05 ± 0.2 kg/m3 in data set [4] (308.15 K) and 790.21 ± 0.2 kg/m3 in data set [4] (318.15 K).

`CCCCCCCC[n+]1ccn(C)c1.F[B-](F)(F)F` [1-methyl-3-octylimidazolium tetrafluoroborate]: the figures for the refractive index in data set [3] (298.15 K), in data set [3] (308.15 K) and in data set [3] (318.15 K) were 1.43253 ± 0.0017, 1.42984 ± 0.0017 and 1.42715 ± 0.0017, respectively. Also, the values for the speed of sound in data set [4] (298.15 K), in data set [4] (308.15 K) and in data set [4] (318.15 K) were 1485.1 ± 2.3 m/s, 1458.5 ± 2.3 m/s and 1433.2 ± 2.3 m/s, respectively. The mass density in data set [4] (298.15 K) was found to be 1105.02 ± 1.1 kg/m3; in data set [4] (308.15 K), 1098.32 ± 1 kg/m3; in data set [4] (318.15 K), 1091.54 ± 1 kg/m3.
